Data from patent publication US8476287B2, “3-hydroxy-5-arylisothiazole derivative” (Mochida Pharmaceutical Co., Ltd., priority 2009, dated 2013).
Where a name gives a salt, the structure may show the parent alone.

Biological target: T1, GPR40 of human origin (Homo sapiens, UniProt O14842)
T1 construct: expressed in transfected cells
Test: Agonist action on GPR40 of human origin (Ca2+ fluorescence in CHO cells)
Assay type: cell-based
Conditions: CHO cell strain stably expressing GPR40 of human origin; Ca2+ concentration fluctuation, fluorescent calcium indicator
Experimental: A CHO cell strain stably expressing GPR40 of human origin was used to determine the agonist action of a subject compound. This cell strain was seeded in a clear bottom 96 well plate at 4×10^4 cells/100 μL/well. The cell strain was cultured in a CO2 incubator overnight using a Ham's F-12 medium containing a 10% fetal bovine serum, 100 U/mL penicillin, 0.1 mg/mL streptomycin, and 400 μg/mL Geneticin. Calcium 4 Assay Kit (Molecular Devices) was used as a fluorescent calcium indicator. One mL of 77 mg/mL probenecid (Invitrogen) was added to 100 mL of a calcium indicator solution to prepare a solution (loading solution) mixed with a 20 mM HEPES-containing Hanks' balanced salt solution (HBSS) in equal proportions. 200 μL of the loading solution was added to the cells from which the culture solution was removed, and the cells were cultured in a CO2 incubator for 1 hour. The subject compound was diluted with a 20 mM HEPES-containing HBSS and was added to the cells by 50 μL, and the fluctuation of the Ca^2+ concentration was measured by an intracellular ion analyzer. The EC50 value of the subject compound was calculated using the dose-response curve of fluorescence intensity variation.

T1 sequence (O14842 whole entry): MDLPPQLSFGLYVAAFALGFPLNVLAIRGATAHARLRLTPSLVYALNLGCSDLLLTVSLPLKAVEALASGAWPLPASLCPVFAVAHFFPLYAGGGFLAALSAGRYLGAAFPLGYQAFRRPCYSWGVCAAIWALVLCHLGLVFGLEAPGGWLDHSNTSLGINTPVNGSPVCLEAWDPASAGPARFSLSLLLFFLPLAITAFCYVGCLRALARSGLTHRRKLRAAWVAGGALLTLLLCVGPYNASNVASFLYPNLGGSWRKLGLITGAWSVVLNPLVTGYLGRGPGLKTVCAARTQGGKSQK

| Structure (SMILES) | EC50 [nM] |
| --- | --- |
| Cc1cc(OCCCO)nc(C)c1-c1cccc(COc2ccc(-c3cc(O)n[s+]3[O-])cc2)c1 (centres unmarked) [Example 49, 5-(4-((3-(2,4-dimethyl-6-(3-hydroxypropoxy)pyridin-3-yl)phenyl)methoxy)phenyl)isothiazol-3-ol 1-oxide(A)] | < 300 |
| Cc1cc(OCCO)cc(C)c1-c1cccc(COc2ccc(-c3cc(O)n[s+]3[O-])cc2)c1C (centres unmarked) [Example 51, 5-(4-((3-(2,6-dimethyl-4-(2-hydroxyethoxy)phenyl)-2-methylphenyl)methoxy)phenyl)isothiazol-3-ol 1-oxide(A)] | < 300 |
| Cc1nc(OCCO)ccc1-c1cccc(COc2ccc(-c3cc(O)n[s+]3[O-])cc2)c1C (centres unmarked) [Example 52, 5-(4-((3-(2-methyl-6-(2-hydroxyethoxy)pyridin-3-yl)-2-methylphenyl)methoxy)phenyl)isothiazol-3-ol 1-oxide(A)] | 300 to 3000 |
| Cc1cc(OC[C@H](O)CO)cc(C)c1-c1cccc(COc2ccc(-c3cc(O)n[s+]3[O-])cc2)c1 (stereo partly drawn) [Example 55, 5-(4-((3-(4-((2R)-2,3-dihydroxypropoxy)-2,6-dimethylphenyl)phenyl)methoxy)phenyl)isothiazol-3-ol 1-oxide(A)] | < 300 |
| Cc1cc(OC[C@H](O)CO)c(F)c(C)c1-c1cccc(COc2ccc(-c3cc(O)n[s+]3[O-])cc2)c1 (stereo partly drawn) [Example 59, 5-(4-((3-(4-((2R)-2,3-dihydroxypropoxy)-2,6-dimethyl-3-fluorophenyl)phenyl)methoxy)phenyl)isothiazol-3-ol 1-oxide(A)] | < 300 |
| Cc1cc(OCC[C@H](C)O)cc(C)c1-c1cccc(COc2ccc(-c3cc(O)n[s+]3[O-])cc2)c1C (stereo partly drawn) [Example 61, 5-(4-((3-(2,6-dimethyl-4-((3S)-3-hydroxybutoxy)phenyl)-2-methylphenyl)methoxy)phenyl)isothiazol-3-ol 1-oxide(A)] | < 300 |
| Cc1cc(OCC[C@@H](C)O)cc(C)c1-c1cccc(COc2ccc(-c3cc(O)n[s+]3[O-])cc2)c1 (stereo partly drawn) [Example 63, 5-(4-((3-(2,6-dimethyl-4-((3R)-3-hydroxybutoxy)phenyl)phenyl)methoxy)phenyl)isothiazol-3-ol 1-oxide(A)] | < 300 |
| Cc1cc(OCC[C@@H](C)O)cc(C)c1-c1cccc(COc2ccc(-c3cc(O)n[s+]3[O-])cc2)c1C (stereo partly drawn) [Example 64, 5-(4-((3-(2,6-dimethyl-4-((3R)-3-hydroxybutoxy)phenyl)-2-methylphenyl)methoxy)phenyl)isothiazol-3-ol 1-oxide(A)] | < 300 |
| [O-][s+]1nc(O)cc1-c1ccc(O[C@@H]2CCc3c(Br)cccc32)cc1 (stereo partly drawn) [Example 66, 5-(4-((1R)-4-bromo-2,3-dihydro-1H-inden-1-yloxy)phenyl)isothiazol-3-ol 1-oxide(A)] | < 300 |
| [O-][s+]1nc(O)cc1-c1ccc(O[C@H]2CCc3c(Br)cccc32)cc1 (stereo partly drawn) [Example 67, 5-(4-((1S)-4-bromo-2,3-dihydro-1H-inden-1-yloxy)phenyl)isothiazol-3-ol 1-oxide(A)] | 300 to 3000 |
| [O-][s+]1nc(O)cc1-c1ccc(OC2CCc3c(Cl)cccc32)cc1 (centres unmarked) [Example 68, 5-(4-(4-chloro-2,3-dihydro-1H-inden-1-yloxy)phenyl)isothiazol-3-ol 1-oxide(A)] | < 300 |
| [O-][s+]1nc(O)cc1-c1ccc(OC2CCc3c2cccc3C(F)(F)F)cc1 (centres unmarked) [Example 69, 5-(4-(4-trifluoromethyl-2,3-dihydro-1H-inden-1-yloxy)phenyl)isothiazol-3-ol 1-oxide(A)] | < 300 |
| CC(=O)NCCCOc1ccc(-c2cccc(COc3ccc(-c4cc(O)n[s+]4[O-])cc3)c2C)c(C)n1 (centres unmarked) [Example 71, N-[3-[5-[3-[[4-(3-hydroxy-1-oxo-isothiazol-5-yl)phenoxy]methyl]-2-methylphenyl]-6-methylpyridin-2-yl]oxypropyl]acetamide(A)] | 300 to 3000 |
| Cc1cc(OCCCNS(C)(=O)=O)cc(C)c1-c1cccc(COc2ccc(-c3cc(O)n[s+]3[O-])cc2)c1 (centres unmarked) [Example 72, N-[3-[4-[3-[[4-(3-hydroxy-1-oxo-isothiazol-5-yl)phenoxy]methyl]phenyl]-3,5-dimethylphenoxy]propyl]methanesulfonamide(A)] | < 300 |
| Cc1cc(OCCCN)cc(C)c1-c1cccc(COc2ccc(-c3cc(O)n[s+]3[O-])cc2)c1 (centres unmarked) [Example 78, 5-[4-[[3-[4-(3-aminopropoxy)-2,6-dimethylphenyl]phenyl]methoxy]phenyl]isothiazol-3-ol 1-oxide(A)] | < 300 |
| [O-][s+]1nc(O)cc1-c1ccc(OC2COc3c2cccc3C(F)(F)F)cc1 (centres unmarked) [Example 80, 1-oxo-5-[4-[[7-(trifluoromethyl)-2,3-dihydro-1-benzofuran-3-yl]oxy]phenyl]-1,2-thiazol-3-ol (A)] | < 300 |

Second part, the molecule after the results:

| EC50 [nM] | Structure (SMILES) |
| --- | --- |
| 300 to 3000 | [O-][s+]1nc(O)cc1-c1ccc(OC2CCOc3cc(C(F)(F)F)ccc32)cc1 (centres unmarked) [Example 83, 5-[4-[[7-(trifluoromethyl)-3,4-dihydro-2H-chromen-4-yl]oxy]phenyl]isothiazol-3-ol 1-oxide(A)] |
| < 300 | CC1(C)CCC(C)(C)c2cc(COc3ccc(-c4cc(O)n[s+]4[O-])cc3)ccc21 (centres unmarked) [Example 85, 5-[4-[(5,5,8,8-tetramethyl-6,7-dihydronaphthalen-2-yl)methoxy]phenyl]isothiazol-3-ol 1-oxide(A)] |
| < 300 | [O-][s+]1nc(O)cc1-c1ccc(OCc2cccc(Cl)c2Cl)cc1 (centres unmarked) [Example 86, 5-[4-[(2,3-dichlorophenyl)methoxy]phenyl]isothiazol-3-ol 1-oxide(A)] |
| 300 to 3000 | C[C@@H](Oc1ccc(-c2cc(O)n[s+]2[O-])cc1)c1cccc(Br)c1 (stereo partly drawn) [Example 88, 5-[4-[(1R)-1-(3-bromophenyl)ethoxy]phenyl]isothiazol-3-ol 1-oxide(A)] |
| 300 to 3000 | Cc1c(Br)cccc1COc1ccc(-c2cc(O)n[s+]2[O-])cc1 (centres unmarked) [Example 91, 5-[4-[(3-bromo-2-methylphenyl)methoxy]phenyl]isothiazol-3-ol 1-oxide(A)] |
| < 300 | Cc1cccc(C)c1N1CCC[C@H](COc2ccc(-c3cc(O)n[s+]3[O-])cc2)C1 (stereo partly drawn) [Example 96, 5-[4-[[(3S)-1-(2,6-dimethylphenyl)piperidin-3-yl]methoxy]phenyl]isothiazol-3-ol 1-oxide (A)] |
| 300 to 3000 | [O-][s+]1nc(O)cc1-c1ccc(OCCc2cccc(Oc3ccccc3)c2)cc1 (centres unmarked) [Example 106, 5-[4-[2-(3-phenoxyphenyl)ethoxy]phenyl]isothiazol-3-ol 1-oxide] |
| < 300 | COc1ccc(-c2cccc3c2CC[C@H]3Oc2ccc(-c3cc(O)n[s+]3[O-])cc2)c(C)n1 (stereo partly drawn) [Example 119, 5-[4-[[(1R)-4-(6-methoxy-2-methylpyridin-3-yl)-2,3-dihydro-1H-inden-1-yl]oxy]phenyl]isothiazol-3-ol 1-oxide(A)trifluoroacetate salt] |
| 300 to 3000 | [O-][s+]1nc(O)cc1-c1ccc(O[C@@H]2CCc3c(C4=CCOCC4)cccc32)cc1 (stereo partly drawn) [Example 121, 5-[4-[[(1R)-4-(3,6-dihydro-2H-pyran-4-yl)-2,3-dihydro-1H-inden-1-yl]oxy]phenyl]isothiazol-3-ol 1-oxide(A)] |
| < 300 | [O-][s+]1nc(O)cc1-c1ccc(OC2CCc3c(Oc4ccccc4)cccc32)cc1 (centres unmarked) [Example 124, 5-[4-[(4-phenoxy-2,3-dihydro-1H-inden-1-yl)oxy]phenyl]isothiazol-3-ol 1-oxide(A)] |
| < 300 | Cc1ncccc1Oc1cccc2c1CCC2Oc1ccc(-c2cc(O)n[s+]2[O-])cc1 (centres unmarked) [Example 125, 5-[4-[[4-(2-methylpyridin-3-yl)oxy-2,3-dihydro-1H-inden-1-yl]oxy]phenyl]isothiazol-3-ol 1-oxide(A)] |
| < 300 | COc1cc(Oc2cccc3c2CCC3Oc2ccc(-c3cc(O)n[s+]3[O-])cc2)ccn1 (centres unmarked) [Example 126, 5-[4-[[4-(2-methoxypyridin-4-yl)oxy-2,3-dihydro-1H-inden-1-yl]oxy]phenyl]isothiazol-3-ol 1-oxide(A)] |
| < 300 | [O-][s+]1nc(O)cc1-c1ccc(OC2CCc3c(OCc4ccccc4)cccc32)cc1 (centres unmarked) [Example 129, 5-[4-[(4-phenylmethoxy-2,3-dihydro-1H-inden-1-yl)oxy]phenyl]isothiazol-3-ol 1-oxide(A)] |
| < 300 | [O-][s+]1nc(O)cc1-c1ccc(OC2CCc3c(OC4CCCCC4)cccc32)cc1 (centres unmarked) [Example 131, 5-[4-[(4-cyclohexyloxy-2,3-dihydro-1H-inden-1-yl)oxy]phenyl]isothiazol-3-ol 1-oxide(A)] |
| < 300 | [O-][s+]1nc(O)cc1-c1ccc(OC2CCc3c(OC4CCOCC4)cccc32)cc1 (centres unmarked) [Example 132, 5-[4-[[4-(oxan-4-yloxy)-2,3-dihydro-1H-inden-1-yl]oxy]phenyl]isothiazol-3-ol 1-oxide(A)] |
| 300 to 3000 | [O-][s+]1nc(O)cc1-c1ccc(COCc2cccc(Br)c2)cc1 (centres unmarked) [Example 141, 5-[4-[(3-bromophenyl)methoxymethyl]phenyl]isothiazol-3-ol 1-oxide] |
